Experimental data: publication PMC4890880 (ACS infectious diseases, 2016)
Like-named read-outs stand apart in the source and are kept apart here.

Test system: HepG2-A16-CD81EGFP cells
Settings: for IC50: read-out: Tox_IC50, HepG2 cytotoxicity
[1] = sheet 2nd round, maximal inhibition in dose response
[2] = 2nd round, maximal inhibition in dose series

SMILES	IC50 (sheet 2nd round)	Tox_max_inhibition (%) [1]	IC50 (sheet "2nd round")	Tox_max_inhibition (%) (sheet "2nd round")	other results
O=C(Cc1ccccc1)N1CC(=O)N2[C@H](CO)[C@H](c3ccc(C#CCc4ccccc4)cc3)[C@H]2C1 [BRD-K27191881-001-01-3]	> 10 µM	3.49%	–	–	–
C[C@H]1CN([C@@H](C)CO)C(=O)c2cc(/C=C/c3ccccc3)cnc2O[C@@H]1CN(C)C(=O)C1CCCCC1 [BRD-K27989629-001-01-7]	> 10 µM	5%	–	–	–
CC(C)CC#Cc1ccc([C@@H]2[C@H]3CN(C(=O)Nc4ccccc4)CCCCN3[C@H]2CO)cc1 [BRD-K28504277-001-01-8]	5.23 µM	99%	–	–	–
COc1ccccc1NC(=O)Nc1ccc2c(c1)OC[C@@H](C)N(Cc1ccccc1Cl)C[C@@H](C)[C@H](OC)CN(C)C2=O [BRD-K28918058-001-01-5]	> 10 µM	13%	–	–	–
CCCNC(=O)N1[C@H](C#N)[C@H](c2ccccc2C2=CCCCC2)[C@@H]1CO [BRD-K29207675-001-01-5]	–	–	–	–	Tox_max_inhibition (%) [2]: 12%; IC50 (2nd round, unit inferred): > 10 µM
COc1ccc2c3c([nH]c2c1)[C@H](CO)N(C(C)=O)CC31CCN(C(=O)Nc2ccccc2F)CC1 [BRD-K30973842-001-02-5]	> 10 µM	14%	–	–	–
COc1ccc2c3c([nH]c2c1)[C@@H](CO)N(S(C)(=O)=O)CC31CCN(C(=O)Nc2ccccc2)CC1 [BRD-K31411295-001-01-9]	–	–	> 10 µM	17%	–
CN1C(=O)c2cc(NC(=O)c3cccc(F)c3)ccc2OC[C@H]2O[C@H](CC(=O)NCC3CCCCC3)CC[C@H]21 [BRD-K31618614-001-02-1]	–	–	> 10 µM	27%	–
CCCNC(=O)N1[C@H](C#N)[C@H](c2ccc(C#Cc3cccc(F)c3)cc2)[C@H]1CO [BRD-K31857539-001-01-9]	–	–	> 10 µM	6%	–
O=C(C[C@H]1C[C@@H]2c3cc(NC(=O)c4ccc5c(c4)OCO5)ccc3O[C@@H]2[C@@H](CO)O1)NCc1ccc(Oc2ccccc2)cc1 [BRD-K34781184-001-01-6]	> 10 µM	49%	–	–	–
CCCNC(=O)N1[C@H](C#N)[C@@H](c2ccccc2-c2cccc(C)c2)[C@@H]1CO [BRD-K35047119-001-01-1]	–	–	–	–	Tox_max_inhibition (%) [2]: 7%; IC50 (2nd round, unit inferred): > 10 µM
Cc1cc(C(=O)Nc2ccc3c(c2)C(=O)N(C)[C@@H]2CC[C@H](CC(=O)NCc4ccc(-c5ccccc5)cc4)O[C@@H]2CO3)no1 [BRD-K35841161-001-02-2]	> 10 µM	37%	–	–	–
CCCC(=O)Nc1ccc2c(c1)OC[C@@H](C)N(Cc1cc(F)ccc1F)C[C@@H](C)[C@H](OC)CN(C)C2=O [BRD-K36104357-001-01-0]	–	–	> 10 µM	18%	–
C[C@@H]1CN([C@H](C)CO)C(=O)c2cccc(NC(=O)c3ccc(-c4nccs4)cc3)c2O[C@@H]1CN(C)C(=O)Nc1ccc(C(F)(F)F)cc1 [BRD-K36757984-001-01-6]	> 10 µM	2.49%	–	–	–
COc1ccccc1C#Cc1ccc([C@@H]2[C@@H](CO)N3CCCCN(C(=O)C4CCC4)C[C@H]23)cc1 [BRD-K36773541-001-01-9]	> 10 µM	6%	–	–	–
CN1C(=O)c2cc(NC(=O)c3ccc(C(F)(F)F)cc3)ccc2OC[C@H]2O[C@@H](CC(=O)NCc3ccc4c(c3)OCO4)CC[C@H]21 [BRD-K38534329-001-01-1]	5.49 µM	57%	–	–	–
COc1ccc(C#Cc2ccc([C@@H]3[C@@H](CO)N4CCCCN(C(=O)Nc5cccc(F)c5)C[C@H]34)cc2)cc1 [BRD-K38867404-001-01-3]	> 10 µM	4%	–	–	–
CO[C@@H]1CN(C)C(=O)c2ccc(NC(=O)c3ccc4c(c3)OCO4)cc2OC[C@@H](C)N(Cc2ccc3c(c2)OCO3)C[C@H]1C [BRD-K38901607-001-01-5]	–	–	> 10 µM	11%	–
C[C@@H]1CCCCO[C@H](CN(C)S(=O)(=O)c2ccc(F)cc2)[C@@H](C)CN([C@H](C)CO)C(=O)c2cc(N(C)C)ccc2O1 [BRD-K38977317-001-01-6]	> 10 µM	6%	–	–	–
Cc1ccc(S(=O)(=O)N(C)C[C@@H]2Oc3cc(C#CC4CCCC4)ccc3S(=O)(=O)N([C@@H](C)CO)C[C@H]2C)cc1 [BRD-K40215908-001-01-2]	–	–	–	–	Tox_max_inhibition (%) [2]: 34%; IC50 (2nd round, unit inferred): > 10 µM
C[C@H]1CCCCO[C@H](CN(C)S(=O)(=O)c2ccccc2)[C@@H](C)CN([C@@H](C)CO)C(=O)c2cc(NC(=O)Nc3ccc4c(c3)OCO4)ccc2O1 [BRD-K40819914-001-01-3]	–	–	> 10 µM	8.49%	–
O=C(Nc1ccccc1F)N1CCCCN2[C@H](C1)[C@@H](c1ccc(/C=C/c3ccccc3)cc1)[C@@H]2CO [BRD-K41442469-001-01-2]	–	–	> 10 µM	8.49%	–
O=C(Nc1ccccc1F)N1CCCCN2[C@H](C1)[C@H](c1ccc(/C=C/c3ccccc3)cc1)[C@@H]2CO [BRD-K41549807-001-01-5]	–	–	> 10 µM	10%	–
COc1ccc(-c2ccc([C@H]3[C@@H](C#N)N(C(=O)NC(C)C)[C@@H]3CO)cc2)cc1 [BRD-K42750356-001-01-3]	–	–	> 10 µM	10%	–

SMILES	IC50 (sheet 2nd round)	Tox_max_inhibition (%) [1]	IC50 (sheet "2nd round")	Tox_max_inhibition (%) (sheet "2nd round")	other results
O=C(Nc1cccc(F)c1)N1CCCCN2[C@H](CO)[C@@H](c3ccc(C#Cc4cccnc4)cc3)[C@@H]2C1 [BRD-K43947390-001-01-2]	> 10 µM	5.34%	–	–	–
C[C@H](CO)N1C[C@H](C)[C@H](CN(C)S(=O)(=O)c2ccccc2)OCCCC[C@H](C)Oc2ccc(NC(=O)Nc3ccc4c(c3)OCO4)cc2C1=O [BRD-K43975729-001-01-5]	–	–	> 10 µM	7%	–
O=C(C[C@H]1C[C@@H]2c3cc(NS(=O)(=O)c4ccc(F)cc4)ccc3O[C@@H]2[C@@H](CO)O1)N1CCc2ccccc2C1 [BRD-K45723650-001-01-0]	–	–	> 10 µM	-1%	–
O=C(Nc1ccccc1F)N1CCCCN2[C@H](CO)[C@@H](c3ccc(/C=C/c4ccccc4)cc3)[C@H]2C1 [BRD-K46850496-001-01-8]	> 10 µM	11%	–	–	–
COc1ccc2c3c([nH]c2c1)[C@H](CO)N(S(C)(=O)=O)CC31CCN(C(=O)Nc2ccccc2)CC1 [BRD-K47463456-001-01-7]	–	–	> 10 µM	13%	–
CCC(=O)N1CC2(CCN(C(=O)Nc3ccccc3F)CC2)c2c([nH]c3cc(OC)ccc23)[C@@H]1CO [BRD-K48749217-001-01-8]	> 10 µM	5.53%	–	–	–
CCCC#Cc1ccc2c(c1)O[C@H](CN(C)Cc1ccccn1)[C@H](C)CN([C@@H](C)CO)S2(=O)=O [BRD-K48766892-001-01-4]	–	–	> 10 µM	7%	–
CC(C)NC(=O)N1[C@H](C#N)[C@H](c2ccc(C#CC3CCCCC3)cc2)[C@@H]1CO [BRD-K48864121-001-01-0]	–	–	–	–	Tox_max_inhibition (%) [2]: 54%; IC50 (2nd round, unit inferred): 9.68 µM
O=C(C[C@H]1CC[C@@H]2[C@H](COC[C@H](O)CN2Cc2ccc(C(F)(F)F)cc2)O1)N1CCc2ccccc2C1 [BRD-K49087010-001-01-1]	–	–	9.12 µM	60%	–
O=C(Nc1ccccc1F)N1CCCCN2[C@H](CO)[C@@H](c3ccc(/C=C/c4ccccc4)cc3)[C@@H]2C1 [BRD-K50964970-001-01-5]	–	–	> 10 µM	8%	–
COc1ccc(C#Cc2ccc3c(c2)O[C@@H](CN(C)C(=O)Nc2cccc(OC)c2)[C@@H](C)CN([C@@H](C)CO)S3(=O)=O)cc1 [BRD-K52609475-001-01-4]	–	–	–	–	Tox_max_inhibition (%) [2]: 6%; IC50 (2nd round, unit inferred): > 10 µM
CCCNC(=O)N1[C@H](C#N)[C@H](c2ccc(C3=CCCCC3)cc2)[C@@H]1CO [BRD-K52785744-001-01-7]	–	–	7.93 µM	50%	–
C[C@@H]1CN([C@H](C)CO)C(=O)c2cc(NC(=O)Nc3ccc4c(c3)OCO4)ccc2O[C@@H](C)CCCCO[C@H]1CN(C)S(=O)(=O)c1ccccc1 [BRD-K54383078-001-01-5]	> 10 µM	5.48%	–	–	–
COc1ccc(-c2ccccc2[C@@H]2[C@@H](C#N)N(C(=O)NC3CCCCC3)[C@H]2CO)cc1 [BRD-K55353065-001-01-2]	–	–	–	–	Tox_max_inhibition (%) [2]: 11%; IC50 (2nd round, unit inferred): > 10 µM
COc1ccc(NC(=O)N2CCCCN3[C@H](CO)[C@@H](c4ccc(-c5ccccc5F)cc4)[C@H]3C2)cc1 [BRD-K55569739-001-01-9]	> 10 µM	3.75%	–	–	–
C[C@H]1CN([C@@H](C)CO)C(=O)c2cccc(NC(=O)NC3CCCCC3)c2O[C@H]1CN(C)Cc1ccc(C(F)(F)F)cc1 [BRD-K56432748-001-01-8]	> 10 µM	10%	–	–	–
O=C(C[C@@H]1C[C@H]2c3cc(NC(=O)c4ccc5c(c4)OCO5)ccc3O[C@H]2[C@H](CO)O1)NCc1ccc(Oc2ccccc2)cc1 [BRD-K60334624-001-01-9]	> 10 µM	4.54%	–	–	–
CCCNC(=O)N1[C@H](C#N)[C@H](c2ccc(C#Cc3ccc(F)cc3)cc2)[C@@H]1CO [BRD-K61371184-001-01-2]	–	–	> 10 µM	22%	–
COc1ccc(S(=O)(=O)Nc2ccc3c(c2)C(=O)N([C@H](C)CO)C[C@@H](C)[C@@H](CN(C)S(=O)(=O)c2ccc(Cl)cc2)OCCCC[C@@H](C)O3)cc1 [BRD-K63849586-001-01-9]	–	–	–	–	Tox_max_inhibition (%) [2]: 13%; IC50 (2nd round, unit inferred): > 10 µM
Cc1ccc(S(=O)(=O)N2CC[C@H]3[C@H](CO)Nc4ccc(-c5cccc(C(=O)N(C)C)c5)cc4[C@H]32)cc1 [BRD-K64741770-001-01-3]	> 10 µM	15%	–	–	–
N#Cc1ccc(-c2ccc(C3[C@@H]4CN(C(=O)Nc5ccc6c(c5)OCO6)C[C@H]3N4)cc2)cc1 (stereo partly shown) [BRD-K65395967-019-01-2]	–	–	–	–	Tox_max_inhibition (%) [2]: 28%; IC50 (2nd round, unit inferred): > 10 µM
O=C(C[C@H]1C[C@H]2c3cc(NC(=O)c4ccc5c(c4)OCO5)ccc3O[C@H]2[C@H](CO)O1)NCc1ccc(Oc2ccccc2)cc1 [BRD-K67774729-001-02-1]	> 10 µM	24%	–	–	–
O=C(C[C@@H]1C[C@H]2c3cc(NC(=O)c4ccc5c(c4)OCO5)ccc3O[C@H]2[C@@H](CO)O1)NCc1ccc(Oc2ccccc2)cc1 [BRD-K67862512-001-01-7]	> 10 µM	23%	–	–	–
